Test results: patent publication US8969516B2, “Method of hydrolysis of peptide bond” (priority 2006, dated 2015)

Experiment: MALDI-TOF screening of Ni^2+ dependent hydrolysis in a combinatorial peptide library
Type: physicochemical
Settings: Ni^2+ 2 mM, pH 8.2, 10 mM Tris, score=24/tm
How it was run: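 Peptide sublibraries CH3CO-Gly-Ala-Ser/Thr-X-His-Z-Lys-Phe-Leu-NH2 (1 mM total) incubated with 2 mM Ni^2+ in 10 mM Tris pH 8.2 at 37 °C and 45 °C. Hydrolysis products, plus loss of substrate signals, detected by MALDI-TOF at 2, 4, 6 and 8 h; residues X and Z scored and ranked.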

[1] = CH3CO-Gly-Ala-Thr-X-His-Z-Lys-Phe-Leu-NH2 library, 37° C.
[2] = CH3CO-Gly-Ala-Thr-X-His-Z-Lys-Phe-Leu-NH2 library, 45° C.
[3] = CH3CO-Gly-Ala-Ser-X-His-Z-Lys-Phe-Leu-NH2 library, 37° C.
[4] = CH3CO-Gly-Ala-Ser-X-His-Z-Lys-Phe-Leu-NH2 library, 45° C.

Substance	hydrolysis score from MALDI-TOF screening [1]	hydrolysis score from MALDI-TOF screening [2]	hydrolysis score from MALDI-TOF screening [3]	hydrolysis score from MALDI-TOF screening [4]
Ac-GATFHQKFL-NH2 [TFHQ]	0 (a score of 0 if no trace of the product of hydrolysis was seen after 8 hours of incubation)	0 (a score of 0 if no trace of the product of hydrolysis was seen after 8 hours of incubation)		
Ac-GASGHQKFL-NH2 [SGHQ]			0 (a score of 0 if no trace of the product of hydrolysis was seen after 8 hours of incubation)	0 (a score of 0 if no trace of the product of hydrolysis was seen after 8 hours of incubation)
Ac-GASMHHKFL-NH2 [SMHH]			0 (a score of 0 if no trace of the product of hydrolysis was seen after 8 hours of incubation)	3 (a score of 3 for detection at 8 hours)
Ac-GASYHSKFL-NH2 [SYHS]			0 (a score of 0 if no trace of the product of hydrolysis was seen after 8 hours of incubation)	0 (a score of 0 if no trace of the product of hydrolysis was seen after 8 hours of incubation)
Ac-GASVHNKFL-NH2 [SVHN]			0 (a score of 0 if no trace of the product of hydrolysis was seen after 8 hours of incubation)	0 (a score of 0 if no trace of the product of hydrolysis was seen after 8 hours of incubation)
Ac-GATPHWKFL-NH2 [TPHW]		0 (a score of 0 if no trace of the product of hydrolysis was seen after 8 hours of incubation)		
Ac-GATNHFKFL-NH2 [TNHF]	0 (a score of 0 if no trace of the product of hydrolysis was seen after 8 hours of incubation)	0 (a score of 0 if no trace of the product of hydrolysis was seen after 8 hours of incubation)		
Ac-GASMHDKFL-NH2 [SMHD]			0 (a score of 0 if no trace of the product of hydrolysis was seen after 8 hours of incubation)	0 (a score of 0 if no trace of the product of hydrolysis was seen after 8 hours of incubation)
Ac-GATTHHKFL-NH2 [TTHH]	0 (a score of 0 if no trace of the product of hydrolysis was seen after 8 hours of incubation)	0 (a score of 0 if no trace of the product of hydrolysis was seen after 8 hours of incubation)		
Ac-GATSHVKFL-NH2 [TSHV]	0 (a score of 0 if no trace of the product of hydrolysis was seen after 8 hours of incubation)	0 (a score of 0 if no trace of the product of hydrolysis was seen after 8 hours of incubation)		
Ac-GASKHIKFL-NH2 [SKHI]			6 (a score of 6 for detection at 4 hours)	12 (a score of 12, if it was seen to be partially hydrolysed at 2 hours)
Ac-GASQHEKFL-NH2 [SQHE]			0 (a score of 0 if no trace of the product of hydrolysis was seen after 8 hours of incubation)	0 (a score of 0 if no trace of the product of hydrolysis was seen after 8 hours of incubation)
Ac-GATKHMKFL-NH2 [TKHM]	3 (a score of 3 for detection at 8 hours)	4 (a score of 4 for detection at 6 hours)		
Ac-GATWHKKFL-NH2 [TWHK]	4 (a score of 4 for detection at 6 hours)	4 (a score of 4 for detection at 6 hours)		
Ac-GASNHQKFL-NH2 [SNHQ]			0 (a score of 0 if no trace of the product of hydrolysis was seen after 8 hours of incubation)	0 (a score of 0 if no trace of the product of hydrolysis was seen after 8 hours of incubation)
Ac-GASMHRKFL-NH2 [SMHR]			4 (a score of 4 for detection at 6 hours)	6 (a score of 6 for detection at 4 hours)
Ac-GATVHHKFL-NH2 [TVHH]	0 (a score of 0 if no trace of the product of hydrolysis was seen after 8 hours of incubation)	0 (a score of 0 if no trace of the product of hydrolysis was seen after 8 hours of incubation)		
Ac-GATMHQKFL-NH2 [TMHQ]	0 (a score of 0 if no trace of the product of hydrolysis was seen after 8 hours of incubation)	0 (a score of 0 if no trace of the product of hydrolysis was seen after 8 hours of incubation)		
Ac-GATWHIKFL-NH2 [TWHI]	0 (a score of 0 if no trace of the product of hydrolysis was seen after 8 hours of incubation)	3 (a score of 3 for detection at 8 hours)		
Ac-GASMHFKFL-NH2 [SMHF]			3 (a score of 3 for detection at 8 hours)	4 (a score of 4 for detection at 6 hours)

Substance	hydrolysis score from MALDI-TOF screening [1]	hydrolysis score from MALDI-TOF screening [2]	hydrolysis score from MALDI-TOF screening [3]	hydrolysis score from MALDI-TOF screening [4]
Ac-GATQHEKFL-NH2 [TQHE]	0 (a score of 0 if no trace of the product of hydrolysis was seen after 8 hours of incubation)	0 (a score of 0 if no trace of the product of hydrolysis was seen after 8 hours of incubation)		
Ac-GASRHVKFL-NH2 [SRHV]			6 (a score of 6 for detection at 4 hours)	12 (a score of 12, if it was seen to be partially hydrolysed at 2 hours)
Ac-GATSHMKFL-NH2 [TSHM]	0 (a score of 0 if no trace of the product of hydrolysis was seen after 8 hours of incubation)	0 (a score of 0 if no trace of the product of hydrolysis was seen after 8 hours of incubation)		
Ac-GATRHHKFL-NH2 [TRHH]	3 (a score of 3 for detection at 8 hours)	4 (a score of 4 for detection at 6 hours)		
Ac-GATYHAKFL-NH2 [TYHA]	0 (a score of 0 if no trace of the product of hydrolysis was seen after 8 hours of incubation)	0 (a score of 0 if no trace of the product of hydrolysis was seen after 8 hours of incubation)		
Ac-GATLHYKFL-NH2 [TLHY]	0 (a score of 0 if no trace of the product of hydrolysis was seen after 8 hours of incubation)	0 (a score of 0 if no trace of the product of hydrolysis was seen after 8 hours of incubation)		
Ac-GATIHPKFL-NH2 [TIHP]	0 (a score of 0 if no trace of the product of hydrolysis was seen after 8 hours of incubation)	0 (a score of 0 if no trace of the product of hydrolysis was seen after 8 hours of incubation)		
Ac-GASNHRKFL-NH2 [SNHR]			6 (a score of 6 for detection at 4 hours)	6 (a score of 6 for detection at 4 hours)
Ac-GASWHDKFL-NH2 [SWHD]			0 (a score of 0 if no trace of the product of hydrolysis was seen after 8 hours of incubation)	0 (a score of 0 if no trace of the product of hydrolysis was seen after 8 hours of incubation)
Ac-GATTHDKFL-NH2 [TTHD]	0 (a score of 0 if no trace of the product of hydrolysis was seen after 8 hours of incubation)	0 (a score of 0 if no trace of the product of hydrolysis was seen after 8 hours of incubation)		
Ac-GATTHWKFL-NH2 [TTHW]	0 (a score of 0 if no trace of the product of hydrolysis was seen after 8 hours of incubation)	0 (a score of 0 if no trace of the product of hydrolysis was seen after 8 hours of incubation)		
Ac-GASYHMKFL-NH2 [SYHM]			0 (a score of 0 if no trace of the product of hydrolysis was seen after 8 hours of incubation)	0 (a score of 0 if no trace of the product of hydrolysis was seen after 8 hours of incubation)
Ac-GASPHYKFL-NH2 [SPHY]			0 (a score of 0 if no trace of the product of hydrolysis was seen after 8 hours of incubation)	0 (a score of 0 if no trace of the product of hydrolysis was seen after 8 hours of incubation)
Ac-GATRHEKFL-NH2 [TRHE]	0 (a score of 0 if no trace of the product of hydrolysis was seen after 8 hours of incubation)	0 (a score of 0 if no trace of the product of hydrolysis was seen after 8 hours of incubation)		
Ac-GATNHSKFL-NH2 [TNHS]	0 (a score of 0 if no trace of the product of hydrolysis was seen after 8 hours of incubation)	0 (a score of 0 if no trace of the product of hydrolysis was seen after 8 hours of incubation)		
Ac-GASRHSKFL-NH2 [SRHS]			3 (a score of 3 for detection at 8 hours)	4 (a score of 4 for detection at 6 hours)
Ac-GATSHRKFL-NH2 [TSHR]	0 (a score of 0 if no trace of the product of hydrolysis was seen after 8 hours of incubation)	0 (a score of 0 if no trace of the product of hydrolysis was seen after 8 hours of incubation)		
Ac-GASRHRKFL-NH2 [SRHR]			4 (a score of 4 for detection at 6 hours)	12 (a score of 12, if it was seen to be partially hydrolysed at 2 hours)
Ac-GASNHVKFL-NH2 [SNHV]			3 (a score of 3 for detection at 8 hours)	3 (a score of 3 for detection at 8 hours)
